In patent US20230132133A1, “METHODS AND COMPOSITIONS FOR THE TREATMENT OF C. DIFFICILE” (priority 2018, published 2023):
In brackets after ≈: the same amount, converted by molar mass.

Tests used:
Assay type in all cases: cell-based, Bacillus amyloliquefaciens
[1] = system: B. amyloliquefaciens ART12; assay: Antibiotic MIC, VetMIC Lact-1 & Lact-2 panels; conditions: average results from N= 6, 24 hr at 37° C.; for MIC: Bacillus amyloliquefaciens, ART12
Method: (§1) The wells of the prefabricated 96-well plates were filled with 100 μL of the final suspension. The plates were sealed with an […], Sigma Aldrich) sealing film (to facilitate growth of the aerobic Bacillus strains. The plates were then incubated for 24 hr at 37° C. The results are recorded after 24 hours as the lowest concentration of the antibiotic to inhibit visible growth. The prefabricated panels […], Uppsala, Sweden) comprising the antibiotics ampicillin, vancomycin, gentamicin, kanamycin, streptomycin, erythromycin, clindamycin, tetracycline, chloramphenicol, neomycin, penicillin, quinupristin-dalfopristin, linezolid, trimethoprim, ciprofloxacin and rifampicin were used.

[2] = system: B. amyloliquefaciens ART24; assay: Antibiotic MIC, VetMIC Lact-1 & Lact-2 panels; conditions: average results from N= 6, 24 hr at 37° C.; for MIC: Bacillus amyloliquefaciens, ART24
Method: as §1

[3] = system: B. amyloliquefaciens ART4; assay: Antibiotic MIC, VetMIC Lact-1 & Lact-2 panels; conditions: average results from N= 6, 24 hr at 37° C.; for MIC: Bacillus amyloliquefaciens, ART4
Method: as §1

[4] = system: B. amyloliquefaciens ART24; assay: Antibiotic MIC following EFSA testing recommendations on lyophilized ART24 lots and cell banks; conditions: for MIC: Bacillus amyloliquefaciens, read-out: MIC for ART24
Source text: The minimum inhibitory concentration (MIC) of the listed antimicrobials is expressed as µg/mL.

Row | Compound | MIC [1] [µg/mL] | MIC [2] [µg/mL] | MIC [3] [µg/mL] | MIC ([4]; ART24, source CO-33-12A2) [µg/mL] | MIC ([4]; ART24, source CO-33 ART 24 BHI) [µg/mL] | MIC ([4]; ART24, source CO-33 ART 024 S) [µg/mL] | MIC ([4]; ART24, source YD CO-33-10A2) [µg/mL] | MIC interpretation for ART24 ([4]; source CO-33-12A2) | MIC interpretation for ART24 ([4]; source CO-33 ART 24 BHI) | MIC interpretation for ART24 ([4]; source CO-33 ART 024 S) | MIC interpretation for ART24 ([4]; source YD CO-33-10A2) | B. amyloliquefaciens MIC ART12 [1] [µg/mL] | B. amyloliquefaciens MIC ART24 [2] [µg/mL] | B. amyloliquefaciens MIC ART4 [3] [µg/mL] | MIC for ART24 ([4]; source CO-33-12A2) [µg/mL] | MIC for ART24 ([4]; source CO-33 ART 24 BHI) [µg/mL] | MIC for ART24 ([4]; source CO-33 ART 024 S) [µg/mL] | MIC for ART24 ([4]; source YD CO-33-10A2) [µg/mL]
1 | [H]/N=C(/N)N[C@H]1[C@H](O)[C@@H](O)[C@H](O[C@@H]2O[C@@H](C)[C@](O)(C=O)[C@H]2O[C@@H]2O[C@@H](CO)[C@H](O)[C@@H](O)[C@@H]2NC)[C@@H](N/C(N)=N\[H])[C@@H]1O [Streptomycin] | 4 (≈ 6.88 µM) | 4 (≈ 6.88 µM) | 4 (≈ 6.88 µM) | 1 (≈ 1.72 µM) | 1 (≈ 1.72 µM) | 2 (≈ 3.44 µM) | 1 (≈ 1.72 µM) | S | S | S | S | – | – | – | – | – | – | –
2 | Quinupristin-dalfopristin | – | – | – | – | – | – | – | – | – | – | – | 4 | 4 | 4 | 2 | 2 | 2 | 1
3 | CC[C@H]1OC(=O)[C@H](C)[C@@H](O[C@H]2C[C@@](C)(OC)[C@@H](O)[C@H](C)O2)[C@H](C)[C@@H](O[C@@H]2O[C@H](C)C[C@H](N(C)C)[C@H]2O)[C@](C)(O)C[C@@H](C)C(=O)[C@H](C)[C@@H](O)[C@]1(C)O [Erythromycin] | 0.12 (≈ 0.164 µM) | 0.12 (≈ 0.164 µM) | 0.12 (≈ 0.164 µM) | 0.06 (≈ 0.0818 µM) | 0.12 (≈ 0.164 µM) | 0.12 (≈ 0.164 µM) | 0.06 (≈ 0.0818 µM) | S | S | S | S | – | – | – | – | – | – | –
4 | O=C(N[C@H](CO)[C@H](O)c1ccc([N+](=O)[O-])cc1)C(Cl)Cl [Chloramphenicol] | 4 (≈ 12.4 µM) | 4 (≈ 12.4 µM) | 2 (≈ 6.19 µM) | 2 (≈ 6.19 µM) | 2 (≈ 6.19 µM) | 2 (≈ 6.19 µM) | 2 (≈ 6.19 µM) | S | S | S | S | – | – | – | – | – | – | –
5 | CCC[C@@H]1C[C@@H](C(=O)N[C@@H]([C@H]2O[C@H](SC)[C@H](O)[C@@H](O)[C@H]2O)[C@H](C)Cl)N(C)C1 [Clindamycin] | 1 (≈ 2.35 µM) | 0.5 to 1 (≈ 1.18 to 2.35 µM) | 0.5 (≈ 1.18 µM) | 0.25 (≈ 0.588 µM) | 0.25 (≈ 0.588 µM) | 0.25 (≈ 0.588 µM) | 0.12 (≈ 0.282 µM) | S | S | S | S | – | – | – | – | – | – | –
6 | O=C(O)c1cn(C2CC2)c2cc(N3CCNCC3)c(F)cc2c1=O [Ciprofloxacin] | ≤ 0.25 | ≤ 0.25 | ≤ 0.25 | ≤ 0.03 | ≤ 0.03 | ≤ 0.03 | ≤ 0.03 | S | S | S | S | – | – | – | – | – | – | –
7 | CO[C@H]1/C=C/O[C@@]2(C)Oc3c(C)c(O)c4c(O)c(c(/C=N/N5CCN(C)CC5)c(O)c4c3C2=O)NC(=O)/C(C)=C\C=C\[C@H](C)[C@H](O)[C@@H](C)[C@@H](O)[C@@H](C)[C@H](OC(C)=O)[C@@H]1C [Rifampicin] | 0.5 (≈ 0.608 µM) | 0.5 (≈ 0.608 µM) | 0.25 (≈ 0.304 µM) | 0.25 (≈ 0.304 µM) | 0.25 (≈ 0.304 µM) | 0.25 (≈ 0.304 µM) | 0.25 (≈ 0.304 µM) | S | S | S | S | – | – | – | – | – | – | –
8 | NC[C@H]1O[C@H](O[C@H]2[C@H](O)[C@@H](O[C@H]3O[C@H](CO)[C@@H](O)[C@H](N)[C@H]3O)[C@H](N)C[C@@H]2N)[C@H](O)[C@@H](O)[C@@H]1O [Kanamycin] | ≤ 2 | ≤ 2 | ≤ 2 | ≤ 0.5 | ≤ 0.5 | ≤ 0.5 | ≤ 0.5 | S | S | S | S | – | – | – | – | – | – | –
9 | CN(C)[C@@H]1C(O)=C(C(N)=O)C(=O)[C@@]2(O)C(O)=C3C(=O)c4c(O)cccc4[C@@](C)(O)[C@H]3C[C@@H]12 [Tetracycline] | 8 (≈ 18 µM) | 4 (≈ 9 µM) | 1 (≈ 2.25 µM) | 2 (≈ 4.5 µM) | 2 (≈ 4.5 µM) | 2 (≈ 4.5 µM) | 2 (≈ 4.5 µM) | S | S | S | S | – | – | – | – | – | – | –
10 | Gentamicin | – | – | – | – | – | – | – | S | S | S | S | ≤0.5 | ≤0.5 | ≤0.5 | ≤ 0.06 | ≤ 0.06 | ≤ 0.06 | ≤ 0.06
11 | COc1cc(Cc2cnc(N)nc2N)cc(OC)c1OC [Trimethoprim] | ≤ 0.12 | ≤ 0.12 | ≤ 0.12 | ≤ 0.25 | ≤ 0.25 | ≤ 0.25 | ≤ 0.25 | – | – | – | – | – | – | – | – | – | – | –
12 | CC1(C)S[C@@H]2[C@H](NC(=O)[C@H](N)c3ccccc3)C(=O)N2[C@H]1C(=O)O [Ampicillin] | 0.25 (≈ 0.715 µM) | 0.25 (≈ 0.715 µM) | 0.12 (≈ 0.343 µM) | ≤ 0.03 | ≤ 0.03 | ≤ 0.03 | ≤ 0.03 | S | S | S | S | – | – | – | – | – | – | –
13 | CC(=O)NC[C@H]1CN(c2ccc(N3CCOCC3)c(F)c2)C(=O)O1 [Linezolid] | 0.5 (≈ 1.48 µM) | 0.5 (≈ 1.48 µM) | 0.5 (≈ 1.48 µM) | 0.5 (≈ 1.48 µM) | 0.5 (≈ 1.48 µM) | 0.5 (≈ 1.48 µM) | 0.25 (≈ 0.741 µM) | – | – | – | – | – | – | – | – | – | – | –
14 | Penicillin | – | – | – | – | – | – | – | S | S | S | S | 0.5 | 0.12 to 0.5 | 0.12 | ≤ 0.03 | ≤ 0.03 | 0.06 | ≤ 0.03
15 | Neomycin | – | – | – | – | – | – | – | – | – | – | – | ≤0.5 | ≤0.5 | ≤0.5 | ≤0.12 | ≤0.12 | ≤0.12 | ≤0.12
